Measurements as given in ChEMBL document CHEMBL4138123, “Design, synthesis and biological evaluation of novel pyrazolochalcones as potential modulators of PI3K/Akt/mTOR pathway and inducers of apoptosis in breast cancer cells” (Eur J Med Chem, 2017).

Assays:
Format in all cases: functional
OVCAR-4 [1] = assay: Cytotoxicity against human OVCAR4 cells assessed as cell growth at 100 uM after 48 hrs by sulforhodamine B assay relative to control; settings: OVCAR-4, 48 h, read-out: Activity
BT-549 [2] = assay: Cytotoxicity against human BT549 cells assessed as growth inhibition after 48 hrs by sulforhodamine B assay; settings: BT-549, 48 h
PC-3 [3] = assay: Cytotoxicity against human PC3 cells assessed as cell growth at 1 uM after 48 hrs by sulforhodamine B assay relative to control; settings: PC-3, 48 h, read-out: Activity
DU-145 = assay: Cytotoxicity against human DU145 cells assessed as growth inhibition after 48 hrs by sulforhodamine B assay; settings: DU-145, 48 h; for CC50: read-out: LC50 (the source's name)
OVCAR-3 = assay: Cytotoxicity against human OVCAR3 cells assessed as cell growth at 0.01 uM after 48 hrs by sulforhodamine B assay relative to control; settings: OVCAR-3, 48 h, read-out: Activity
PC-3 [4] = assay: Cytotoxicity against human PC3 cells assessed as cell growth at 100 uM after 48 hrs by sulforhodamine B assay relative to control; settings: PC-3, 48 h, read-out: Activity
BT-549 [5] = assay: Cytotoxicity against human BT549 cells assessed as cell growth at 100 uM after 48 hrs by sulforhodamine B assay relative to control; settings: BT-549, 48 h, read-out: Activity
Malme-3M = assay: Cytotoxicity against human MALME-3M cells assessed as cell growth at 0.1 uM after 48 hrs by sulforhodamine B assay relative to control; settings: read-out: Activity
SNB-19 = assay: Cytotoxicity against human SNB19 cells assessed as growth inhibition after 48 hrs by sulforhodamine B assay; settings: SNB-19, 48 h; for CC50: read-out: LC50 (the source's name)
ACHN = assay: Cytotoxicity against human ACHN cells assessed as cell growth at 0.01 uM after 48 hrs by sulforhodamine B assay relative to control; settings: read-out: Activity
MCF7 [6] = assay: Cytotoxicity against human MCF7 cells assessed as cell growth at 0.1 uM after 48 hrs by sulforhodamine B assay relative to control; settings: MCF7, 48 h, read-out: Activity
786-0 = assay: Cytotoxicity against human 786-0 cells assessed as cell growth at 0.1 uM after 48 hrs by sulforhodamine B assay relative to control; settings: 786-0, 48 h, read-out: Activity
NCI-H522 [7] = assay: Cytotoxicity against human NCI-H522 cells assessed as cell growth at 10 uM after 48 hrs by sulforhodamine B assay relative to control; settings: NCI-H522, 48 h, read-out: Activity
MDA-MB-435 [8] = assay: Cytotoxicity against human MDA-MB-435 cells assessed as cell growth at 100 uM after 48 hrs by sulforhodamine B assay relative to control; settings: MDA-MB-435, 48 h, read-out: Activity
MCF7 [9] = assay: Cytotoxicity against human MCF7 cells assessed as cell growth at 10 uM after 48 hrs by sulforhodamine B assay relative to control; settings: MCF7, 48 h, read-out: Activity
HCT-116 = assay: Cytotoxicity against human HCT116 cells assessed as cell growth at 0.1 uM after 48 hrs by sulforhodamine B assay relative to control; settings: HCT-116, 48 h, read-out: Activity
SW-620 = assay: Cytotoxicity against human SW620 cells assessed as cell growth at 0.1 uM after 48 hrs by sulforhodamine B assay relative to control; settings: SW-620, 48 h, read-out: Activity
UACC-62 [10] = assay: Cytotoxicity against human UACC62 cells assessed as cell growth at 100 uM after 48 hrs by sulforhodamine B assay relative to control; settings: UACC-62, 48 h, read-out: Activity
RXF 393 [11] = assay: Cytotoxicity against human RXF393 cells assessed as cell growth at 1 uM after 48 hrs by sulforhodamine B assay relative to control; settings: RXF 393, 48 h, read-out: Activity
UACC-257 [12] = assay: Cytotoxicity against human UACC257 cells assessed as growth inhibition after 48 hrs by sulforhodamine B assay; settings: UACC-257, 48 h
T47D = assay: Cytotoxicity against human T47D cells assessed as cell growth at 10 uM after 48 hrs by sulforhodamine B assay relative to control; settings: read-out: Activity
OVCAR-4 [13] = assay: Cytotoxicity against human OVCAR4 cells assessed as growth inhibition after 48 hrs by sulforhodamine B assay; settings: OVCAR-4, 48 h
RXF 393 [14] = assay: Cytotoxicity against human RXF393 cells assessed as growth inhibition after 48 hrs by sulforhodamine B assay; settings: RXF 393, 48 h
SF-268 = assay: Cytotoxicity against human SF268 cells assessed as cell growth at 1 uM after 48 hrs by sulforhodamine B assay relative to control; settings: SF-268, 48 h, read-out: Activity
MDA-MB-435 [15] = assay: Cytotoxicity against human MDA-MB-435 cells assessed as cell growth at 10 uM after 48 hrs by sulforhodamine B assay relative to control; settings: MDA-MB-435, 48 h, read-out: Activity
UACC-62 [16] = assay: Cytotoxicity against human UACC62 cells assessed as cell growth at 0.1 uM after 48 hrs by sulforhodamine B assay relative to control; settings: UACC-62, 48 h, read-out: Activity
Hs-578T [17] = assay: Cytotoxicity against human Hs 578T cells assessed as growth inhibition after 48 hrs by sulforhodamine B assay
U-251 [18] = assay: Cytotoxicity against human U251 cells assessed as growth inhibition after 48 hrs by sulforhodamine B assay; settings: U-251, 48 h
NCI-H322M = assay: Cytotoxicity against human NCI-H322M cells assessed as cell growth at 10 uM after 48 hrs by sulforhodamine B assay relative to control; settings: read-out: Activity
Hs-578T [19] = assay: Cytotoxicity against human Hs 578T cells assessed as cell growth at 0.1 uM after 48 hrs by sulforhodamine B assay relative to control; settings: read-out: Activity
HL-60(TB) = assay: Cytotoxicity against human HL-60(TB) cells assessed as cell growth at 0.1 uM after 48 hrs by sulforhodamine B assay relative to control; settings: HL-60, 48 h, read-out: Activity
U-251 [20] = assay: Cytotoxicity against human U251 cells assessed as cell growth at 0.1 uM after 48 hrs by sulforhodamine B assay relative to control; settings: U-251, 48 h, read-out: Activity
UACC-257 [21] = assay: Cytotoxicity against human UACC257 cells assessed as cell growth at 0.1 uM after 48 hrs by sulforhodamine B assay relative to control; settings: UACC-257, 48 h, read-out: Activity
NCI-H522 [22] = assay: Cytotoxicity against human NCI-H522 cells assessed as cell growth at 0.01 uM after 48 hrs by sulforhodamine B assay relative to control; settings: NCI-H522, 48 h, read-out: Activity
UACC-257 [23] = assay: Cytotoxicity against human UACC257 cells assessed as cell growth at 0.01 uM after 48 hrs by sulforhodamine B assay relative to control; settings: UACC-257, 48 h, read-out: Activity

COc1cc(C(=O)/C=C/c2cc(-c3ccc4c(c3)OCO4)n[nH]2)cc(OC)c1OC
growth at 100 µM (OVCAR-4 [1]): -100%
GI50 (BT-549 [2]): 2.02 µM
LC50 (concentration killing 50% of cells) (BT-549 [2]): 20.1 µM
TGI (BT-549 [2]): 5 µM
growth at 1 µM (PC-3 [3]): 71%
GI50 (DU-145): 2.92 µM
TGI (DU-145): 9.16 µM
CC50 (DU-145): 31.4 µM
growth at 0.01 µM (OVCAR-3): 98%
growth at 100 µM (PC-3 [4]): -84%
growth at 100 µM (BT-549 [5]): -77%
growth at 0.1 µM (Malme-3M): 83%
GI50 (SNB-19): 2.34 µM
TGI (SNB-19): 11.7 µM
CC50 (SNB-19): 35.6 µM
growth at 0.01 µM (ACHN): 102%
growth at 0.1 µM (MCF7 [6]): 94%
growth at 0.1 µM (786-0): 98%
growth at 10 µM (NCI-H522 [7]): -71%
growth at 100 µM (MDA-MB-435 [8]): -88%
growth at 10 µM (MCF7 [9]): -62%
growth at 0.1 µM (HCT-116): 100%
growth at 0.1 µM (SW-620): 95%
growth at 100 µM (UACC-62 [10]): -96%
growth at 1 µM (RXF 393 [11]): 67%
GI50 (UACC-257 [12]): 2.95 µM
LC50 (UACC-257 [12]): 32 µM
TGI (UACC-257 [12]): 9.46 µM
growth at 10 µM (T47D): -34%
GI50 (OVCAR-4 [13]): 0.88 µM
LC50 (OVCAR-4 [13]): 20.1 µM
TGI (OVCAR-4 [13]): 4.24 µM
GI50 (RXF 393 [14]): 1.31 µM
LC50 (concentration killing 50% of cells) (RXF 393 [14]): 6.59 µM
TGI (RXF 393 [14]): 2.94 µM
growth at 1 µM (SF-268): 89%
growth at 10 µM (MDA-MB-435 [15]): -29%
growth at 0.1 µM (UACC-62 [16]): 97%
GI50 (Hs-578T [17]): 3.14 µM
LC50 (Hs-578T [17]): > 100 µM
TGI (Hs-578T [17]): 20.5 µM
GI50 (U-251 [18]): 1.21 µM
LC50 (U-251 [18]): 5.13 µM
TGI (U-251 [18]): 2.49 µM
growth at 10 µM (NCI-H322M): -22%
growth at 0.1 µM (Hs-578T [19]): 90%
growth at 0.1 µM (HL-60(TB)): 98%
growth at 0.1 µM (U-251 [20]): 96%
growth at 0.1 µM (UACC-257 [21]): 97%
growth at 0.01 µM (NCI-H522 [22]): 97%
growth at 0.01 µM (UACC-257 [23]): 98%

COc1cc2c(cc1OC)C(=O)/C(=C/c1cc(-c3ccc4c(c3)OCO4)n[nH]1)C2
growth at 100 µM (OVCAR-4 [1]): -98%
GI50 (BT-549 [2]): 1.62 µM
LC50 (concentration killing 50% of cells) (BT-549 [2]): 5.71 µM
TGI (BT-549 [2]): 3.04 µM
growth at 1 µM (PC-3 [3]): 65%
GI50 (DU-145): 1.45 µM
TGI (DU-145): 2.86 µM
CC50 (DU-145): 5.64 µM
growth at 0.01 µM (OVCAR-3): 101%
growth at 100 µM (PC-3 [4]): -79%
growth at 100 µM (BT-549 [5]): -87%
growth at 0.1 µM (Malme-3M): 84%
GI50 (SNB-19): 1.55 µM
TGI (SNB-19): 2.96 µM
CC50 (SNB-19): 5.63 µM
growth at 0.01 µM (ACHN): 104%
growth at 0.1 µM (MCF7 [6]): 89%
growth at 0.1 µM (786-0): 98%
growth at 10 µM (NCI-H522 [7]): -80%
growth at 100 µM (MDA-MB-435 [8]): -95%
growth at 10 µM (MCF7 [9]): -84%
growth at 0.1 µM (HCT-116): 105%
growth at 0.1 µM (SW-620): 99%
growth at 100 µM (UACC-62 [10]): -88%
growth at 1 µM (RXF 393 [11]): 80%
GI50 (UACC-257 [12]): 1.71 µM
LC50 (UACC-257 [12]): 5.72 µM
TGI (UACC-257 [12]): 3.13 µM
growth at 10 µM (T47D): -90%
GI50 (OVCAR-4 [13]): 1.11 µM
LC50 (OVCAR-4 [13]): 5 µM
TGI (OVCAR-4 [13]): 2.36 µM
GI50 (RXF 393 [14]): 1.54 µM
LC50 (concentration killing 50% of cells) (RXF 393 [14]): 6.62 µM
TGI (RXF 393 [14]): 3.19 µM
growth at 1 µM (SF-268): 83%
growth at 10 µM (MDA-MB-435 [15]): -88%
growth at 0.1 µM (UACC-62 [16]): 106%
GI50 (Hs-578T [17]): 2.61 µM
LC50 (Hs-578T [17]): > 100 µM
TGI (Hs-578T [17]): 8.08 µM
GI50 (U-251 [18]): 1.09 µM
LC50 (U-251 [18]): 4.9 µM
TGI (U-251 [18]): 2.31 µM
growth at 10 µM (NCI-H322M): -90%
growth at 0.1 µM (Hs-578T [19]): 99%
growth at 0.1 µM (HL-60(TB)): 95%
growth at 0.1 µM (U-251 [20]): 95%
growth at 0.1 µM (UACC-257 [21]): 94%
growth at 0.01 µM (NCI-H522 [22]): 91%
growth at 0.01 µM (UACC-257 [23]): 93%
